# Measurements as given in patent publication US11345713B2, “Compounds as modulators of TLR2 signaling” (Neuropore Therapies, inc., priority 2018, dated 2022).
# Key:
# [1] = target: T1, human TLR2 (Pam2CSK4, TLR2/6 agonist) in HEK-Blue hTLR2 cells (Homo sapiens, UniProt O60603); experiment: HEK-Blue hTLR2 antagonism assay (SEAP reporter) with Pam2CSK4 as agonist; assay type: cell-based; settings: 2 h compound pre-incubation, approx. 3×EC50 Pam2CSK4, 18 h, SEAP OD 655 nm, background subtracted
# T1 construct: host or cells: HEK-Blue hTLR2 (HEK-293)
# T1 sequence (O60603 19-784 limits assumed): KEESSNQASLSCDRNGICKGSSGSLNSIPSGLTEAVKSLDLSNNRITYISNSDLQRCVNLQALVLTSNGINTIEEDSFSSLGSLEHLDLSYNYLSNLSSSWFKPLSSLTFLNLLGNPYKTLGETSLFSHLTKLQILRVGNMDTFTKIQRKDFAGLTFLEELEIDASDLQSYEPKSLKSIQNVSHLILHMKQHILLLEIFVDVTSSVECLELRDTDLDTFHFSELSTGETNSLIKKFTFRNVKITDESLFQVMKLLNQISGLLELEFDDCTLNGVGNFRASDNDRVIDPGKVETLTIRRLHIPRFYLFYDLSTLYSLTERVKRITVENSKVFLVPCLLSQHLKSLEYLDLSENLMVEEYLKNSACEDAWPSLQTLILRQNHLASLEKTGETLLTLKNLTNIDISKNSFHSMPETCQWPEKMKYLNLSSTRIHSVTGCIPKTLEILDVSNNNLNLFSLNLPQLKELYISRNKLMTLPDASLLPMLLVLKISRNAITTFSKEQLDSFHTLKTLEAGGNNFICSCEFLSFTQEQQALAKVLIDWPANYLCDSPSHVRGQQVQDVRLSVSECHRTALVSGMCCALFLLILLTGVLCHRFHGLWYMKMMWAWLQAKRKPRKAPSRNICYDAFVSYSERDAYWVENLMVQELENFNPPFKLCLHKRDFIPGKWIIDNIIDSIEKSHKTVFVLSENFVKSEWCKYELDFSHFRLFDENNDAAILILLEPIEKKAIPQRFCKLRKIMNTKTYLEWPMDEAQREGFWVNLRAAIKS
# Method: (§1) Synthetic diacylated lipoprotein (Pam2CSK4, TLR2/6 agonist) and synthetic triacylated lipoprotein (Pam3CSK4, TLR1/2 agonist) were obtained from InvivoGen and were dissolved in endotoxin-free water to a concentration 1 mg/mL, vortexed until complete solubilization, and stored in aliquots at −20° C. Prior to addition to cells, an aliquot of the dissolved ligand was vortexed shortly and then was diluted in medium to 25 ng/mL Pam2CSK4 or 1000 ng/mL Pam3CSK4. The EC50 of the agonists for each assay run was determined by using 3-fold dilutions of each agonist from the following starting concentrations: 5 ng/mL for Pam2CSK4, and 200 ng/mL for Pam3CSK4.
# (§2) Test compounds were solubilized fresh to 10-20 mM stocks in DMSO and sonicated for 5-10 minutes in a water bath sonicator. Serial dilutions were prepared in DMSO, and then diluted in medium. The final concentration of DMSO used in the assay was 1%.
# (§3) HEK-Blue hTLR2 reporter cells (InvivoGen) are HEK-293 cells stably expressing both the human TLR2 gene and a secreted embryonic alkaline phosphatase (SEAP) reporter construct downstream of NFκB promotor sites. HEK-Blue hTLR2 reporters were cultured according to manufacturer's protocol using Dulbecco's Modified Eagle Medium (DMEM; Gibco) containing 1× GlutaMax (Gibco), 10% heat-inactivated Fetal Bovine Serum (Gibco), Pen-Strep (50 U/mL penicillin, 50 μg/mL streptomycin, Gibco), 100 μg/mL Normocin (InvivoGen), and the selective antibiotic, 1× HEK-Blue Selection (InvivoGen). Quanti-Blue reagent (InvivoGen) for detection and quantification of secreted alkaline phosphatase was dissolved in 100 mL of endotoxin-free water, warmed to 37° C. for 30 minutes and then filtered using a 0.2 μm membrane.
# (§4) On day 1, 50 μL of each test compound dilution in duplicates or a vehicle control was added to each well of a 96-well plate followed by addition of 150 μL of HEK-Blue hTLR2 cell suspension (1×10^5 cells/well) and incubated at 37° C./5% CO2 for 2 h. Next, 50 μL of an approximate 3×EC50 concentration of each agonist (Pam2CSK4 or Pam3CSK4) was added to the wells containing test compounds or the vehicle control. The plates were then incubated at 37° C./5% CO2 for 18 h. For each assay run, non-treated HEK-Blue hTLR2 cells were treated with serial dilutions of agonists to determine EC50 values for the respective run.
# (§5) On day 2, secreted alkaline phosphatase (SEAP) activity was detected in cell culture supernatants. In brief, 20 μL was collected from each well and transferred to a 96-well plate. Next, 200 μL of Quanti-Blue detection reagent was added to each well. Plates were incubated at room temperature for 15 min and SEAP activity was assessed by spectrophotometer OD reading at 655 nm. […] The activities of the compounds against Pam2CSK4 and Pam3CSK4 are presented as IC50 values for the response from cells treated with agonists with the background signal subtracted.
# [2] = target: T2, human TLR2 (Pam3CSK4, TLR1/2 agonist) in HEK-Blue hTLR2 cells (Homo sapiens, UniProt O60603); experiment: HEK-Blue hTLR2 antagonism assay (SEAP reporter) with Pam3CSK4 as agonist; assay type: cell-based; settings: 2 h compound pre-incubation, approx. 3×EC50 Pam3CSK4, 18 h, SEAP OD 655 nm, background subtracted
# T2 construct: host or cells: HEK-Blue hTLR2 (HEK-293)
# T2 sequence (O60603 19-784 limits assumed): as above
# Method: as §1, §2, §3, §4, §5
IC50 [1] [µM],IC50 [2] [µM],Compound
1.1,1,"COc1cc(/C=C/c2ccc3ccccc3c2)cc(C=O)c1O [compound 32, (E)-2-hydroxy-3-methoxy-5-(2-(naphthalen-2-yl)vinyl)benzaldehyde]"
6.2,6.4,"COc1cc(/C=C/C(=O)c2ccccc2)cc(C=O)c1O [compound 33, (E)-2-hydroxy-3-methoxy-5-(3-oxo-3-phenylprop-1-en-1-yl)benzaldehyde]"
9.7,7.5,"COc1cc(/C=C/c2cc(C=O)c(O)c(OC)c2)ccc1O [compound 34, (E)-2-hydroxy-5-(4-hydroxy-3-methoxystyryl)-3-methoxybenzaldehyde]"
68.5,62.6,"COc1cc(/C=C/C(=O)N2CCOCC2)cc(C=O)c1O [compound 35, (E)-2-hydroxy-3-methoxy-5-(3-morpholino-3-oxoprop-1-en-1-yl)benzaldehyde]"
0.6,0.4,"COc1cc(/C=C/c2ccc(-c3ccccc3)cc2)cc(C=O)c1O [compound 36, (E)-5-(2-([1,1′-biphenyl]-4-yl)vinyl)-2-hydroxy-3-methoxybenzaldehyde]"
1,0.3,"O=Cc1cc(/C=C/c2ccc(-c3ccccc3)cc2)cc(F)c1O [compound 37, (E)-5-(2-([1,1′-biphenyl]-4-yl)vinyl)-3-fluoro-2-hydroxybenzaldehyde]"
4.4,5,"COc1cc(C=Cc2ccc3c(c2)OCCO3)cc(C=O)c1O [compound 38, 5-(2-(2,3-dihydrobenzo[b][1,4]dioxin-6-yl)vinyl)-2-hydroxy-3-methoxybenzaldehyde]"
12.8,15.4,"O=Cc1cc(/C=C/c2ccc3c(c2)OCCO3)cc(F)c1O [compound 39, (E)-5-(2-(2,3-dihydrobenzo[b][1,4]dioxin-6-yl)vinyl)-3-fluoro-2-hydroxybenzaldehyde]"
2.3,2.5,"COc1cc(/C=C/c2ccc(N3CCOCC3)cc2)cc(C=O)c1O [compound 40, (E)-2-hydroxy-3-methoxy-5-(4-morpholinostyryl)benzaldehyde]"
35.1,29.8,"COc1cc(/C=C\c2ccc(N3CCOCC3)cc2)cc(C=O)c1O [compound 41, (Z)-2-hydroxy-3-methoxy-5-(4-morpholinostyryl)benzaldehyde]"
3.4,4.5,"O=Cc1cc(/C=C/c2ccc(N3CCOCC3)cc2)cc(F)c1O [compound 42, (E)-3-fluoro-2-hydroxy-5-(4-morpholinostyryl)benzaldehyde]"
32.8,40.7,"O=Cc1cc(/C=C\c2ccc(N3CCOCC3)cc2)cc(F)c1O [compound 43, (Z)-3-fluoro-2-hydroxy-5-(4-morpholinostyryl)benzaldehyde]"
3,3.2,"COc1cc(/C=C/c2cccc(N3CCOCC3)c2)cc(C=O)c1O [compound 44, (E)-2-hydroxy-3-methoxy-5-(3-morpholinostyryl)benzaldehyde]"
5,6.7,"O=Cc1cc(/C=C/c2cccc(N3CCOCC3)c2)cc(F)c1O [compound 45, (E)-3-fluoro-2-hydroxy-5-(3-morpholinostyryl)benzaldehyde]"
1.4,1,"COc1cc(/C=C/c2cccc(N3CCCC3)c2)cc(C=O)c1O [compound 46, (E)-2-hydroxy-3-methoxy-5-(3-(pyrrolidin-1-yl)styryl)benzaldehyde]"
1.3,0.9,"O=Cc1cc(/C=C/c2cccc(N3CCCC3)c2)cc(F)c1O [compound 47, (E)-3-fluoro-2-hydroxy-5-(3-(pyrrolidin-1-yl)styryl)benzaldehyde]"
1,0.6,"COc1cc(/C=C/c2ccc(N3CCCC3)cc2)cc(C=O)c1O [compound 48, (E)-2-hydroxy-3-methoxy-5-(4-(pyrrolidin-1-yl)styryl)benzaldehyde]"

IC50 [1] [µM],IC50 [2] [µM],Compound
10,6.7,"O=Cc1cc(/C=C\c2ccc(N3CCCC3)cc2)cc(F)c1O [compound 50, (Z)-3-fluoro-2-hydroxy-5-(4-(pyrrolidin-1-yl)styryl)benzaldehyde]"
71.3,70.1,"COc1cc(/C=C\c2ccc(N3CCCC3)cc2)cc(C=O)c1O [compound 51, (Z)-2-hydroxy-3-methoxy-5-(4-(pyrrolidin-1-yl)styryl)benzaldehyde]"
> 100,> 100,"COc1cc(/C=C/c2ccc(N3CCCC3)cc2)cc(O)c1C=O [compound 52, (E)-2-hydroxy-6-methoxy-4-(4-(pyrrolidin-1-yl)styryl)benzaldehyde]"
1.3,1.5,"O=Cc1c(O)cc(/C=C/c2ccc(N3CCCC3)cc2)cc1F [compound 53, (E)-2-fluoro-6-hydroxy-4-(4-(pyrrolidin-1-yl)styryl)benzaldehyde]"
4,4.6,"COCCOc1ccc(/C=C/c2cc(C=O)c(O)c(OC)c2)cc1 [compound 54, (E)-2-hydroxy-3-methoxy-5-(4-(2-methoxyethoxy)styryl)benzaldehyde]"
3.6,4.1,"COCCOc1ccc(/C=C/c2cc(F)c(O)c(C=O)c2)cc1 [compound 55, (E)-3-fluoro-2-hydroxy-5-(4-(2-methoxyethoxy)styryl)benzaldehyde]"
1.8,1.7,"COc1cc(/C=C/c2ccc(-n3cccn3)cc2)cc(C=O)c1O [compound 56, (E)-5-(4-(1H-pyrazol-1-yl)styryl)-2-hydroxy-3-methoxybenzaldehyde]"
1.7,1.9,"O=Cc1cc(/C=C/c2ccc(-n3cccn3)cc2)cc(F)c1O [compound 57, (E)-5-(4-(1H-pyrazol-1-yl)styryl)-3-fluoro-2-hydroxybenzaldehyde]"
4.9,5,"COc1cc(/C=C/c2ccc3ncccc3c2)cc(C=O)c1O [compound 58, (E)-2-hydroxy-3-methoxy-5-(2-(quinolin-6-yl)vinyl)benzaldehyde]"
4.1,2.6,"O=Cc1cc(/C=C/c2ccc3ncccc3c2)cc(F)c1O [compound 59, (E)-3-fluoro-2-hydroxy-5-(2-(quinolin-6-yl)vinyl)benzaldehyde]"
2.3,0.9,"COc1cc(/C=C/c2ccc3c(c2)CCCN3C(=O)OC(C)(C)C)cc(C=O)c1O [compound 60, tert-butyl (E)-6-(3-formyl-4-hydroxy-5-methoxystyryl)-3,4-dihydroquinoline-1(2H)-carboxylate]"
1,0.4,"CC(C)(C)OC(=O)N1CCCc2cc(/C=C/c3cc(F)c(O)c(C=O)c3)ccc21 [compound 61, tert-butyl (E)-6-(3-fluoro-5-formyl-4-hydroxystyryl)-3,4-dihydroquinoline-1(2H)-carboxylate]"
1.5,0.8,"CN1CCCc2cc(/C=C/c3cc(F)c(O)c(C=O)c3)ccc21 [compound 62, (E)-3-fluoro-2-hydroxy-5-(2-(1-methyl-1,2,3,4-tetrahydroquinolin-6-yl)vinyl)benzaldehyde]"
1.5,0.6,"CCN(CC)c1ccc(/C=C/c2cc(C=O)c(O)c(OC)c2)cc1 [compound 63, (E)-5-(4-(diethylamino)styryl)-2-hydroxy-3-methoxybenzaldehyde]"
1.1,0.5,"CCN(CC)c1ccc(/C=C/c2cc(F)c(O)c(C=O)c2)cc1 [compound 64, (E)-5-(4-(diethylamino)styryl)-3-fluoro-2-hydroxybenzaldehyde]"
1.7,0.5,"COc1cc(/C=C/c2ccc(OCC3CC3)cc2)cc(C=O)c1O [compound 65, (E)-5-(4-(cyclopropylmethoxy)styryl)-2-hydroxy-3-methoxybenzaldehyde]"
